“Also recorded” adds a separate entry of the source. Like-named read-outs stand apart in the source and are kept apart here.
How the values were obtained:
RS virus [1] = assay: RS virus cytopathology / syncytium formation in Hep-2 cells (Table 3); details: for Effect on RS virus cytopathology (syncytia): added 2 hour post infection
BHK-21 [2] = assay: Toxicity on BHK-21 cells; details: BHK-21 (hamster kidney); data not shown
A549 [3] = assay: Toxicity on A549 cells; details: A549 (human lung); data not shown
trypsin-like enzymes = details: relative to benzamidine; cited from earlier work
CV-1 [4] = assay: Toxicity on CV-1 cells; details: CV-1 (monkey kidney); data not shown
RS virus [5] = test system: RS virus
cell growth = details: cited from earlier work
[6] = molecular target: plasminogen activator urokinase; details: cited from earlier work
A549 [7] = test system: A549
BHK-21 [8] = test system: BHK-21
pancreatic kallikrein = details: cited from earlier work
CV-1 [9] = test system: CV-1
P-3 virus = assay: Multiple cycle yields of P-3 virus (Table 5); type: cell-based, Parainfluenza type 3; details: 50 μM
Protocol: (§1) Virus yields were quantitated by calculating 50 percent end points according to the method of Reed and Muench (A simple method for estimating fifty percent end-points. Am. J. Hyg. b 27, 493-497 (1938)). Briefly, 0.05 ml of virus diluted in MEM plus 10% FCS was added to micro-titer plates. This was followed by the addition of 40,000-60,000 Hep-2 cells in a volume of 0.05 ml. Plates were incubated at 36° C. for 5-7 days. Six or eight wells were used for each dilution. Standard error analysis was done according to the method of Pizzi (Sampling variation of the fifty percent endpoint determined by the Reed-Muench (Behrens) method. Human Biol. 22, 151-180 (1950)).
(§2) For these experiments, Hep- 2 cells were infected with either RS virus or
(§3) P-3 virus at multiplicities of infection of 0.1, 0.01, or 0.001. Following
(§4) a 2 hour adsorption period, the cultures received medium with or without a
(§5) The monolayers were harvested after
(§6) multiple cycles of replication and the yields were determined in
(§7) inhibitor-free microtiter assays.

RS virus [10] = assay: RS virus cytopathic effect in CV-1 cells; type: cell-based, A2 strain; details: 50 μM; 8 days post infection; over 50% of untreated monolayer destroyed
Text: (§8) This reduction of cytopathology was even more obvious in RS virus infected CV-1 cells examined at 8 days post infection. It was observed that in untreated infected cultures over 50% of the monolayer was destroyed during the multiple cycles of RS virus growth.

P-3 = P-3 yield in CV-1 cells maintained with compound 7; type: cell-based, Parainfluenza type 3; details: 50 μM for 6 days; challenged on day 6
RS virus [11] = assay: Multiple cycle yields of RS virus (Table 5); type: cell-based, A2 strain; details: for Multiple cycle yield of RS virus, treated: 50 μM
Protocol: as §1, §2, §3, §4, §5, §6, §7

RS virus [12] = assay: RS yields after pretreatment of Hep-2 cells at high multiplicities of infection; type: cell-based, A2 strain
Text: RS virus. Even at high multiplicities of infection, pretreatment of Hep-2
reduction of RS yields. The results in Table 5 also reveal that the […]

MP mutant of HSV-1 = assay: Fusion of CV-1 cells by MP mutant of HSV-1; type: cell-based, herpes simplex type 1
Text: A polykaryoctye-forming mutant (MP) of herpes simplex type 1 (HSV-1) was also employed.
as §8

RS virus [13] = type: cell-based, A2 strain
HSV-1 = HSV-1 yield in CV-1 cells maintained with compound 7; type: cell-based, herpes simplex type 1; details: 50 μM for 6 days; challenged on day 6
[14] = 10 μM, moi 1-2, control titers 1-5 × 10^7

SMILES: N=C(N)c1ccc(OCCCCCOc2ccc(C(=N)N)cc2)cc1 [Compound 2, Pentamidine]
- Effect on RS virus cytopathology (syncytia) (RS virus [1]; 0.1 μM, Hep-2): S
- Effect on RS virus cytopathology (syncytia) (RS virus [1]; 1.0 μM, Hep-2): S
- Pattern of toxicity compared with Hep-2 cells (BHK-21 [2]): identical pattern of toxicity
- Pattern of toxicity compared with Hep-2 cells (A549 [3]): identical pattern of toxicity
- Effectiveness against trypsin-like enzymes versus benzamidine (trypsin-like enzymes): generally an order of magnitude more effective than benzamidine
- Pattern of toxicity compared with Hep-2 cells (CV-1 [4]): identical pattern of toxicity
- Single cycle yield of RS virus (RS virus titers) (RS virus [5]): 6.3 × 10^4 TCID50/ml
- Concentration reducing cell growth rates (cell growth): 5 to 40 µM

SMILES: N=C(N)c1ccc(OCCC(O)COc2ccc(C(=N)N)cc2)cc1 (centres unmarked) [Compound 5, 1,4-Di(4-amidinophenoxy)-2-butanol]
- Inhibition of RS virus / RS virus-induced cell fusion (general statement) (RS virus [1]): inhibitively effective against RS virus
- Effect on RS virus cytopathology (syncytia) (RS virus [1]; 0.1 μM, Hep-2): S
- Effect on RS virus cytopathology (syncytia) (RS virus [1]; 1.0 μM, Hep-2): S
- Suppression of RS virus syncytia (in words) (RS virus [1]; Hep-2): suppressed the appearance of the characteristic syncytia
- Ki [6]: 3.2 µM
- Single cycle yield of RS virus (RS virus titers) (RS virus [5]; [14]): 0.5 × 10^7 TCID50/ml
- Single cycle yield of RS virus (RS virus titers) (RS virus [5]; 100 μM, moi 1-2, control titers 1-5 × 10^7): 5.0 × 10^5 TCID50/ml

SMILES: N=C(N)c1ccc(OCc2cccc(COc3ccc(C(=N)N)cc3I)c2)c(I)c1 [Compound 6, α,α'-Bis(4-amidino-2-iodophenoxy)-m-xylene]
- Effect on RS virus cytopathology (syncytia) (RS virus [1]; 0.1 μM, Hep-2): S
- Effect on RS virus cytopathology (syncytia) (RS virus [1]; 1.0 μM, Hep-2): S
- Cytotoxicity relative to other compounds (in words) (Hep-2 cells): as toxic as pentamidine
- Pattern of toxicity compared with Hep-2 cells (A549 [7]): identical pattern of toxicity
- Pattern of toxicity compared with Hep-2 cells (BHK-21 [8]): identical pattern of toxicity
- Ki (pancreatic kallikrein): 0.031 µM
- Single cycle yield of RS virus (RS virus titers) (RS virus [5]; [14]): 6.3 × 10^6 TCID50/ml
- Pattern of toxicity compared with Hep-2 cells (CV-1 [9]): identical pattern of toxicity

SMILES: N=C(N)c1ccc2nc(Cc3nc4ccc(C(=N)N)cc4[nH]3)[nH]c2c1 [Compound 7, Bis(5-amidino-2-benzimidazolyl)methane]
- Inhibition of RS virus / RS virus-induced cell fusion (general statement) (RS virus [1]): inhibitively effective against RS virus
- Effect on RS virus cytopathology (syncytia) (RS virus [1]; 0.1 μM, Hep-2): S
- Fusion of RS virus-infected cells (morphology) (RS virus [1]; 1.0 μM, moi 1-2, 40 hrs post infection): abolition of fusion
- minimal effective concentration (RS virus [1]; HEp-2, read-out: Lowest concentration inhibiting syncytium formation): 1 µM
- Effect on yield of P-3 virus (in words) (P-3 virus; low moi): slight, but consistent decrease
- Multiple cycle yield of P-3 virus, treated (P-3 virus; moi 0.001, harvested 72 hr post infection, control 2.0 × 10^8): 6.3 × 10^7 TCID50 /ml
- Multiple cycle yield of P-3 virus, treated (P-3 virus; moi 0.01, harvested 48 hr post infection, control 7.9 × 10^7): 4.6 × 10^7 TCID50 /ml
- Multiple cycle yield of P-3 virus, treated (P-3 virus; moi 0.1, harvested 48 hr post infection, control 3.5 × 10^8): 7.9 × 10^7 TCID50 /ml
- RS virus cytopathic effect in CV-1 cells (RS virus [10]): preservation of the monolayer with individual foci of infection appearing to be inhibited in their spread to uninfected areas of the culture
- P-3 yield after prolonged exposure of CV-1 cells (P-3): normal yields
- Multiple cycle yield of RS virus, treated (RS virus [11]; moi 0.001, harvested 120 hr post infection, control 2.8 × 10^6): 1.1 × 10^4 TCID50 /ml
- Multiple cycle yield of RS virus, treated (RS virus [11]; moi 0.01, harvested 120 hr post infection, control 3.2 × 10^7): 1.2 × 10^5 TCID50 /ml
- Multiple cycle yield of RS virus, treated (RS virus [11]; moi 0.1, harvested 72 hr post infection, control 5.0 × 10^7): 6.3 × 10^6 TCID50 /ml
- Effect on multiple cycle yields / spreading of RS virus (in words) (RS virus [11]; compound 7: 50 μM, low moi): considerably less; also recorded: greatly reduced the spreading
- log reduction at 50 µM (RS virus [12]): 1 to 2
- Effect on ability of MP mutant of HSV-1 to fuse cells (MP mutant of HSV-1): no effect
- Behavior of RS virus replicated in presence of inhibitor versus control (RS virus [13]; 50 μM, RSI series vs C series): did not behave differently from the control
- Effect on RS virus penetration (in words) (RS virus [13]; compound 7: 50 μM): penetration was delayed to a similar degree
- RS virus titer, TCID50 (Log 10) (RS virus [13]; titer #1: RSI + I + A, 50 μM): 4.11 TCID50 (Log 10)
- RS virus titer, TCID50 (Log 10) (RS virus [13]; titer #2: RSI + I + A (so in the source), 50 μM): 5.97 TCID50 (Log 10)
- RS virus titer, TCID50 (Log 10) (RS virus [13]; titer #3: RSI - I + A, virus grown with 50 μM, none during adsorption): 5.50 TCID50 (Log 10)
- RS virus titer, TCID50 (Log 10) (RS virus [13]; titer #4: RSI - I + A (so in the source), virus grown with 50 μM, none during adsorption): 5.97 TCID50 (Log 10)
- RS virus titer, TCID50 (Log 10) (RS virus [13]; titer #5: C + I + A, untreated control #7 (C - I + A) 6.73): 5.59 TCID50 (Log 10)
- RS virus titer, TCID50 (Log 10) (RS virus [13]; titer #6: C + I - A, untreated control #8 (C - I + A as printed) 6.97): 6.92 TCID50 (Log 10)
- Pattern of toxicity compared with Hep-2 cells (A549 [7]): identical pattern of toxicity
- Pattern of toxicity compared with Hep-2 cells (BHK-21 [8]): identical pattern of toxicity
- HSV-1 yield after prolonged exposure of CV-1 cells (HSV-1): normal yields
- Single cycle yield of RS virus (RS virus titers) (RS virus [5]; 50 μM, moi 1-2, control titers 1-5 × 10^7): 6.3 × 10^7 TCID50/ml
- Single cycle yield of RS virus (RS virus titers) (RS virus [5]; 500 μM, moi 1-2, control titers 1-5 × 10^7): 2.0 × 10^7 TCID50/ml
- Pattern of toxicity compared with Hep-2 cells (CV-1 [9]): identical pattern of toxicity

Reference: patent publication US4619942A, “Inhibition of Respiratory Syncytial virus-induced cell fusion by amidino compounds” (priority 1983, dated 1986)
